Tests used:
[1] = system: HR2 cells; assay: Clonogenic assay; format: cell-based, human; details: HR2, 2.5 µM
Procedure: (§1) Figure 8 C29 is efficient on radioresistant MB cell lines. (A) Cell death after 48 h of treatment with control (DMSO, CT) or C29 1, 2.5, or 5 µM on radiation-resistant cells (RR) and normal cells (N), n = 3. Statistics were performed using the one-way method ANOVA. * p < 0.05, ** p < 0.01, *** p < 0.001. For this figure, DR1 = D1, DR2 = D2, HR1 = H1, HR2 = H2, and C8D1A = C8. (B) Proliferation of DR1/DR2 (A) and HR1/HR2 (B) radio-resistant cells after 1 µM C29 treatment or control (DMSO), n = 3. (C) Clonogenic assay on DR1, DR2 (n = 3) and HR1, HR2 (n = 3) cells after treatment with control (DMSO) or C29 (1 µM or 2.5 µM). (D) Cell migration through the Boyden chamber of DR1 and DR2 cells specifically attracted by 200 ng/mL CXCL8. Cells were treated with control (DMSO) or C29 (1 and 2.5 µM). Results are expressed as percentage of control (n = 3). Scale = 1000 μm. Statistics were performed using Student t-test for 2 comparisons only or ANOVA test for multiple comparisons. * p < 0.05, ** p < 0.01, *** p < 0.001. […]
(§2) each month by using PlasmoTest Kit (#10L07‐MM, InvivoGen, Toulouse, France). Daoy and ONS‐76 belong to the Shh genetic subgroup, D341‐Med and HD‐MB03 to group 3. […]
(§3) 150 Daoy/DR1/DR2/ ONS ‐ 76 and 300 HD ‐ MB03/HR1/HR2 cells were seeded in trip‐ licate in 6‐well plates in the presence or absence of treatment (1 or 2∙5μM […] or DMSO as control). On day 9 (Daoy/ONS‐76) and day 11 (HD ‐MB03), cells were fixed in ice‐cold absolute ethanol (Sigma) for 20 min, washed with PBS and then stained with Giemsa 50% for 30 min. The number of clones was quantified using ImageJ software. We only considered clones containing more than 50 cells. […]
Violet. […]
(§4) 5000 cells were plated in 48 multi‐well plates coated with agarose 0∙8%. After two days, spheroids were mixed with 100μl of matrigel mix (200μl of matrigel (Corning Mat‐ rigel Matrix, Fontenay‐sous‐Bois, France), 100 μl collagen I (8 mg/ml, Corning), 80 μl HEPES 1M and 320μl respective medium) in 12 multi‐well plates. […]

[2] = system: radiation resistant Daoy cells (DR1, DR2); assay: Clonogenic assay; format: cell-based, human
Procedure: as §1, §2, §3
Violet. […]
as §4

[3] = system: DR1 and DR2 cells; assay: CXCL8-dependent migration in Boyden chamber; format: cell-based, human; details: DR1 and DR2, 1 µM, 200 ng/mL CXCL8
Procedure: as §1, with “(D) Cell migration through the Boyden chamber of DR1 and DR2 cells specifically attracted by 200 ng/mL CXCL8. Cells were treated with control (DMSO) or C29 (1 and 2.5 µM).” left out, “3).” for “3). Scale = 1000 μm. Statistics were performed using Student t-test for 2 comparisons only or ANOVA test for multiple comparisons. * p < 0.05, ** p < 0.01, *** p < 0.001.”
(§5) 1500 Daoy, ONS ‐76, HD ‐MB03 or D341 Med cells were sown in triplicate in plates with six wells and the cells were counted daily for 8 days using a Coulter counter (Ville‐ pinte). The relative number of cells (compared to day 1) was determined daily. […]
(§6) Y = Y0 * exp(k * X) (Y= Cell number at day X; Y0= Cell number at day 0 (graphically calculated); X= Day following cell plating (cells plated at X0=0); k= Exponential growth constant rate. Doubling times were compared.
(§7) 150 Daoy/DR1/DR2/ ONS ‐ 76 and 300 HD ‐ MB03/HR1/HR2 cells were seeded in trip‐ licate in 6‐well plates in the presence or absence of treatment (1 or 2∙5μM MCK140 or DMSO as control). […] The number of clones was quantified using ImageJ software. […]

[4] = Lipophilicity (log D); format: physicochemical; details: source not stated
[5] = system: Primary mouse astrocytes (C8D1A); assay: IC50 on normal cells (XTT / cell death by PI staining); format: cell-based; details: C8-D1A, 48 h of treatment
From the text: We then determined the selectivity index (SI), which is the IC50 value for normal cells divided by the IC50 value for tumour cells, to assess the overall toxicity on normal tissues. These IC50 values determined by XTT assays or measurement of cell death by PI staining were nearly equivalent (Figure 3E,F). Primary mouse astrocytes (C8D1A) were selected based on their nervous system lineage. […] The SI was thus 6.44 for Daoy, 2.84 for ONS-76, 10.7 for HD-MB03, and 3.94 for D341Med, indicating selectivity towards tumour cell death at the doses considered. These values are also consistent with those determined for renal cancer cells. […]
as §5, §6, §7

## O=C(Nc1cccc(Cl)c1)Nc1nc2ccc([N+](=O)[O-])cc2s1 [C29, 1-(3-chlorophenyl)-3-(6-nitrobenzo[d]thiazol-2-yl) urea]
[1]
  Clone formation: significantly reduced clone formation
[2]; DR1, DR2, 1 µM
  Clone formation: effective
[2]; DR1, DR2, 2.5 µM
  Clone formation: completely prevented clone formation
[3]
  CXCL8-dependent migration: significantly inhibited
[4]
  logD: ~3
[5]
  IC50: 19.3 µM

From publication PMC9738107, “Targeting of the ELR+CXCL/CXCR1/2 Pathway Is a Relevant Strategy for the Treatment of Paediatric Medulloblastomas” (Cells, 2022)
